We go through eleven compounds from patent publication US9884832B2 (priority 2011, dated 2018).

For the test, the target named is AM2 S31 (wild-type serine at position 31 in the M2 protein), influenza virus A/Udorn/72 (Influenza A virus, UniProt P0DOF5). Put plainly: cell-based. To be noted: 100 uM, Xenopus oocytes; for inhibition at 100 µM: read-out: S31 OOcyte Inhibition at 100 uM (%).

Broadly, the inhibition is the drop in the measured response relative to a control, in per cent.

Like-named read-outs stand apart in the source and are kept apart here.

Sequence of AM2 S31 (wild-type serine at position 31 in the M2 protein), influenza virus A/Udorn/72 (P0DOF5 whole entry, looked up): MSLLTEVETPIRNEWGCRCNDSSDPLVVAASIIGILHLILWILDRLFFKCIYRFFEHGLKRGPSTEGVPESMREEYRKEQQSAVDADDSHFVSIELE

Consider `F[B-](F)(F)C[NH2+]C12CC3CC(CC(C3)C1)C2` [Example 204a, N-[(Trifluoro-4-boranyl)methyl]adamantan-1-aminium], for which the “S31 OOcyte Inhibition at 100 uM (%)” value (activity range class) was “A ((A)=31-95%)”.

On to `Cc1nc(CNC23CC4CC(CC(C4)C2)C3)cs1` [Example 12b, N-((2-methylthiazol-4-yl)methyl)adamantan-1-amine], for which the inhibition at 100 µM (Table 3, pH 5.5, -20 mV) is 31 to 95%.

Regarding `Cc1noc(C)c1-c1ccc(CNC23CC4CC(CC(C4)C2)C3)cc1` [Example 33a, N-(4-(3,5-Dimethylisoxazol-4-yl)benzyl)adamantan-1-amine], under “activity range class”, the inhibition at 100 µM lay in the range of 0 to 30%.

On to `COc1ccccc1-c1ccc(CNC23CC4CC(CC(C4)C2)C3)nc1` [Example 69b, Adamantan-1-yl-[5-(2-methoxy-phenyl)-pyridin-2-ylmethyl]-amine], for which, where the note is “Table 3, pH 5.5, -20 mV”, the inhibition at 100 µM lay within 0 to 30%.

As to `Cc1nn2cc(CNC3C4CC5CC(C4)CC3C5)nc2s1` (centres unmarked) [Example 106, Adamantan-2-yl-(2-methyl-imidazo[2,1-b][1,3,4]thiadiazol-6-ylmethyl)-amine], under “Table 1, pH 5.5, -20 mV”, the inhibition at 100 µM is 0 to 30%.

For `CSC(C)(C)Cc1cc(CNC23CC4CC(CC(C4)C2)C3)no1` [Example 46b, N-((5-(2-methyl-2-(methylthio)propyl)isoxazol-3-yl)methyl)adamantan-1-amine], the inhibition at 100 µM (Table 3, pH 5.5, -20 mV) was 0 to 30%.

As for `Oc1c(CNC23CC4CC(CC(C4)C2)C3)ccc2ccccc12` [Example 53a, 2-(Adamantan-1-ylaminomethyl)-naphthalen-1-ol], the inhibition at 100 µM (activity range class) was 31 to 95%.

For `CCOc1ccc(CNC23CC4CC(CC(C4)C2)C3)cc1` [Example 20, Adamantan-1-yl-(4-ethoxy-benzyl)-amine], the inhibition at 100 µM (Table 1, pH 5.5, -20 mV) was in the range of 0 to 30%.

As for `Oc1ccc(CNC23CC4CC(CC(C4)C2)C3)c(O)c1` [Example 46, 4-(Adamantan-1-ylaminomethyl)-benzene-1,3-diol], where the note is “Table 1, pH 5.5, -20 mV”, the inhibition at 100 µM was 31 to 95%.

As for `C[Si](C)(C)c1ccc(CNC23CC4CC(CC(O)(C4)C2)C3)cc1` [Example 193a, (1s,3r,5R,7S)-3-((4-(trimethylsilyl)benzyl)amino)adamantan-1-ol], the inhibition at 100 µM (activity range class) lay within 0 to 30%.

On to `Clc1ccc(CNC23CC4CC(CC(C4)C2)C3)s1` [Example 79a, N-((5-chlorothiophen-2-yl)methyl)adamantan-1-amine], for which the inhibition at 100 µM (activity range class) was in the range of 31 to 95%.
